Data on 7 compounds can be found in US8927730B2, “Intramolecular hydrogen-bonded nitric oxide synthase inhibitors” (Northwestern University, priority 2010, dated 2015).

The target of series [1] is HEK293t cells stably transfected with rat nNOS (Rattus norvegicus (Rat), UniProt P29476). Put plainly: nNOS cell-based assay (nitrite production, Griess reagent). The settings on record: for Relationship (fold higher in cells): cell-based IC50 versus in vitro IC50; for IC50: inhibition of nitric oxide production in HEK293t cells stably expressing nNOS. As for the experimental part: HEK293t cells stably transfected with rat nNOS were cultured as previously described, and the nNOS inhibition assay was performed as previously reported (Fang, J.; Silverman, R. B. A cellular model for screening neuronal nitric oxide synthase inhibitors. Analytical Biochemistry 2009, 390, 74-78), with the following modifications: assays were performed in 96-well plates with a total volume of 100 μL, and 10 μM A23187 (Sigma Aldrich, St Louis, Mo., USA) in 50% DMSO was used in place of 5 μM. Nine concentrations of each inhibitor were tested, in at least triplicate wells. All inhibitors were assayed within the same experiment to assure consistencies in cell concentration and passage number. The entire assay was repeated at least twice for each inhibitor, and the IC50 values averaged. After 6 hours of activation (in the presence or absence of inhibitor, which was added 30 minutes before activation) 50 μL aliquots of the media were removed and nitrite production was quantified using Griess reagent. (See, Hevel, J. M.; White, K. A.; Marietta, M. Purification of the inducible murine macrophage nitric oxide synthase. Identification as a flavoprotein. J. Biol. Chem. 1991, 266, 22789-22791.)
(In general: Griess reagent forms a coloured azo dye with nitrite.)

The conditions of series [2]: animal test results; cited from earlier work.
Another series has as its target rat nNOS (Rattus norvegicus (Rat), UniProt P29476). Put plainly: In vitro purified enzyme assay (hemoglobin capture), nNOS. The series is classed as biochemical. The settings on record: for IC50: purified enzyme assay; for Ki: calculated from directly measured IC50 (Cheng-Prusoff), rat nNOS. As for the experimental part: (§1) The three NOS isoforms, rat nNOS, murine iNOS and bovine eNOS were recombinant enzymes overexpressed in E. coli and purified as reported in the literature. (See, e.g., example 51 of the aforementioned incorporated '790 patent and the references cited therein.) The hemoglobin capture was used to measure nitric oxide production. (See, Hevel, J. M. and Marietta, M. A. Nitric Oxide Synthase Assays. Methods Enzymol. 1994, 133, 250-258.) Briefly, the assay was run at 37° C. in 100 mM HEPES buffer (10% glycerol; pH 7.4) in the presence of 10 μM L-arginine. The following NOS cofactors were also included in the assay: 100 μM NADPH, 10 μM tetrahydrobiopterin, 1 mM CaCl2, 11.6 μg/mL calmodulin and 3.0 μM oxyhemoglobin. For iNOS, calmodulin and CaCl2 were omitted. The assay was run in a high throughput manner, using the Synergry 4 by BioTek, at the Northwestern University HighThroughput Analysis Facility. The assay was run in triplicate; 48 100 uL reactions were ran at once in a 96 well plate. The addition of hemoglobin and NOS were automated with a maximum of a 30 second delay before the reactions could be recorded at 401 nm. The absorbance increase at 401 nm is due to the formation of NO via the conversion of oxyhemoglobin to methemoglobin.
(§2) The IC50 values were obtained using non-linear regression in GraphPad Prism5 software.

The next series has as its target murine iNOS (Mus musculus (Mouse), UniProt P29477). Description: In vitro purified enzyme assay (hemoglobin capture), iNOS. It is filed as biochemical. The settings on record: for Ki: calculated from directly measured IC50 (Cheng-Prusoff), murine iNOS; for selectivity n/i: ratio of Ki (iNOS) to Ki (nNOS). As for the experimental part: as §1, §2
Another series deals with bovine eNOS (Bos taurus (Bovine), UniProt P29473). Description: In vitro purified enzyme assay (hemoglobin capture), eNOS. The series is classed as biochemical. Particulars: for Ki: calculated from directly measured IC50 (Cheng-Prusoff), bovine eNOS; for selectivity n/e: ratio of Ki (eNOS) to Ki (nNOS). The procedure:
as §1, §2

For series [3] the following is noted: cited from earlier work.

With `C=CCO[C@@H]1CN(C(=O)OC(C)(C)C)C[C@@H]1Cc1cc(C)cc(N(C(=O)OC(C)(C)C)C(=O)OC(C)(C)C)n1` [Compound 1, reference compound], in series [1], the “Relationship (fold higher in cells)” value is reported as 722 x and the IC50 came to 325 µM. Besides, in series [2], the BBB penetration entry is “do not penetrate the BBB”. The IC50 at rat nNOS came out at 0.45 µM.

On to `Cc1cc(C[C@H]2CN(C(=O)OC(C)(C)C)C[C@H]2OCC=O)nc(N(C(=O)OC(C)(C)C)C(=O)OC(C)(C)C)c1` [Compound 2, reference compound], for which, in series [1], the “Relationship (fold higher in cells)” value amounted to 125 x and half-maximal inhibition (IC50) was put at 125 µM. Besides, the BBB penetration entry in series [2] is listed as “do not penetrate the BBB”. Further, the concentration for half-maximal inhibition (IC50) at rat nNOS stood at 1 µM.

Take `COc1ccccc1CNCCO[C@@H]1CNC[C@@H]1Cc1cc(C)cc(N)n1` [Compound 3b, 6-(((3S,4S)-4-(2-(2-Methoxybenzylamino)ethoxy)pyrrolidin-3-yl)methyl)-4-methylpyridin-2-amine]: in series [1], the “Relationship (fold higher in cells)” value worked out at 27 x and the concentration for half-maximal inhibition (IC50) was found to be 190 µM. Further, on murine iNOS, the Ki is 114 µM and the selectivity n/i came to 139. In addition, at rat nNOS, the Ki is 0.82 µM and the concentration for half-maximal inhibition (IC50) is 7.1 µM. Besides, on bovine eNOS, the Ki is 77 µM and the selectivity n/e is given as 93.

For `Cc1cc(N)nc(C[C@H]2CNC[C@H]2OCCNCc2ccccc2F)c1` [Compound 3a, 6-(((3S,4S)-4-(2-(2-Fluorobenzylamino)ethoxy)pyrrolidin-3-yl)methyl)-4-methylpyridin-2-amine], in series [1], the “Relationship (fold higher in cells)” value came out at 33 x and the midpoint of inhibition, the IC50, lay at 120 µM. Besides, at murine iNOS, the inhibition constant (Ki) is 44 µM and the selectivity n/i is given as 105. On rat nNOS, the Ki is 0.41 µM and the IC50 amounted to 3.6 µM. Moreover, at bovine eNOS, the Ki was 40 µM and the selectivity n/e is given as 98.

For `CNc1cc(N)nc(NC)c1.Cl` [Aminopyridine, 2-amino-4,6-dimethylaminopyridine hydrochloride, reference compound], the “Relationship (fold higher in cells)” value in series [1] came out at 500x. Besides, the IC50 on rat nNOS stood at 0.05 µM. Besides, the pKa in series [3] is listed as about 7.

In the case of `Cc1cc(N)nc(C[C@H]2CNC[C@H]2OCCNCc2ccccc2O)c1` [Compound 3c, 2-((2-((3S,4S)-4-((6-Amino-4-methylpyridin-2-yl)methyl)pyrrolidin-3-yloxy)ethylamino)methyl)phenol], in series [1], the “Relationship (fold higher in cells)” value was found to be 150 x and the IC50 was found to be 520 µM. Also, at murine iNOS, the inhibitory constant (Ki) was 57 µM and the selectivity n/i is recorded as 143. Also, at rat nNOS, the inhibitory constant (Ki) was 0.39 µM and the IC50 came out at 3.5 µM. Further, at bovine eNOS, the Ki was 37 µM and the selectivity n/e is recorded as 93.

Take `Cc1cc(N)nc(C[C@H]2CNC[C@H]2OCCNCc2ccco2)c1` [Compound 3d, 6-(((3S,4S)-4-(2-(Furan-2-ylmethylamino)ethoxy)pyrrolidin-3-yl)methyl)-4-methylpyridin-2-amine]: in series [1], the “Relationship (fold higher in cells)” value worked out at 123 x and inhibition was half-maximal at 420 µM (IC50). Besides, at murine iNOS, the Ki is 36 µM and the selectivity n/i was determined as 92. On rat nNOS, the inhibitory constant (Ki) is 0.4 µM and the IC50 was determined as 3.4 µM. In addition, on bovine eNOS, the inhibition constant (Ki) was 66 µM and the selectivity n/e is 169.

One may read the IC50 as the concentration at which inhibition is half-maximal. In general, Ki refers to the dissociation constant of the complex between target and ligand, obtained from inhibition or displacement. Broadly, the pKa is the pH at which an ionisable group is half protonated.
